Data: PubChem BioAssay (NCI)
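Compound exposure: 48 hours, 5 concentrations, 96-well plates. TGI is the concentration that stops growth completely.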

Legend:
Experiment in all cases: growth of human tumour cells (NCI), 48 h
786-0 renal = test system: 786-0 renal
A498 renal = test system: A498 renal
A549 NSCLC = test system: A549 NSCLC
ACHN renal = test system: ACHN renal
BT-549 breast = test system: BT-549 breast
CAKI-1 renal = test system: CAKI-1 renal
CCRF-CEM leukemia = test system: CCRF-CEM leukemia
COLO 205 colon = test system: COLO 205 colon
DU-145 prostate = test system: DU-145 prostate
EKVX NSCLC = test system: EKVX NSCLC
HCT-116 colon = test system: HCT-116 colon
HCT-15 colon = test system: HCT-15 colon
HL-60(TB) leukemia = test system: HL-60(TB) leukemia
HOP-62 NSCLC = test system: HOP-62 NSCLC
HOP-92 NSCLC = test system: HOP-92 NSCLC
HS 578T breast = test system: HS 578T breast
HT29 colon = test system: HT29 colon
IGROV1 ovarian = test system: IGROV1 ovarian
K-562 leukemia = test system: K-562 leukemia
KM12 colon = test system: KM12 colon
LOX IMVI melanoma = test system: LOX IMVI melanoma
M14 melanoma = test system: M14 melanoma
MALME-3M melanoma = test system: MALME-3M melanoma
MCF7 breast = test system: MCF7 breast
MDA-MB-231 breast = test system: MDA-MB-231 breast
MDA-MB-435 = test system: MDA-MB-435
MDA-N = test system: MDA-N
MOLT-4 leukemia = test system: MOLT-4 leukemia
NCI-H226 lung = test system: NCI-H226 lung
NCI-H23 lung = test system: NCI-H23 lung
NCI-H460 lung = test system: NCI-H460 lung
NCI-H522 lung = test system: NCI-H522 lung
NCI/ADR-RES ovarian = test system: NCI/ADR-RES ovarian
OVCAR-3 ovarian = test system: OVCAR-3 ovarian
OVCAR-4 ovarian = test system: OVCAR-4 ovarian
OVCAR-5 ovarian = test system: OVCAR-5 ovarian
OVCAR-8 ovarian = test system: OVCAR-8 ovarian
PC-3 prostate = test system: PC-3 prostate
RPMI-8226 leukemia = test system: RPMI-8226 leukemia
RXF 393 renal = test system: RXF 393 renal
SF-268 CNS = test system: SF-268 CNS
SF-295 CNS = test system: SF-295 CNS
SF-539 CNS = test system: SF-539 CNS
SK-MEL-2 melanoma = test system: SK-MEL-2 melanoma
SK-MEL-28 melanoma = test system: SK-MEL-28 melanoma
SK-MEL-5 melanoma = test system: SK-MEL-5 melanoma
SK-OV-3 ovarian = test system: SK-OV-3 ovarian
SN12C renal = test system: SN12C renal
SNB-19 CNS = test system: SNB-19 CNS
SNB-75 CNS = test system: SNB-75 CNS
SR leukemia = test system: SR leukemia
SW-620 colon = test system: SW-620 colon
T-47D breast = test system: T-47D breast
TK-10 renal = test system: TK-10 renal
U251 CNS = test system: U251 CNS
UACC-257 melanoma = test system: UACC-257 melanoma
UACC-62 melanoma = test system: UACC-62 melanoma
UO-31 renal = test system: UO-31 renal
HCC-2998 colon = test system: HCC-2998 colon

`CC(=O)Nc1ccc(Cc2ccc3[nH]c(=O)cc(C)c3c2)cc1` was tested, and the TGI (786-0 renal) was 98.2 µM, the TGI (A498 renal) was > 100 µM and the TGI (A549 NSCLC) was > 100 µM. The TGI (ACHN renal) was > 100 µM, the TGI (BT-549 breast) was > 100 µM and the TGI (CAKI-1 renal) was > 100 µM. The TGI (CCRF-CEM leukemia) was > 100 µM, the TGI (COLO 205 colon) was > 100 µM and the TGI (DU-145 prostate) was > 100 µM. For the same compound, the TGI (EKVX NSCLC) was > 100 µM, the TGI (HCT-116 colon) was > 100 µM and the TGI (HCT-15 colon) was > 100 µM. For the same compound, the TGI (HL-60(TB) leukemia) was > 100 µM, the TGI (HOP-62 NSCLC) was > 100 µM and the TGI (HOP-92 NSCLC) was > 100 µM. For the same compound, the TGI (HS 578T breast) was > 100 µM, the TGI (HT29 colon) was > 100 µM and the TGI (IGROV1 ovarian) was > 100 µM. The TGI (K-562 leukemia) was > 100 µM, the TGI (KM12 colon) was > 100 µM and the TGI (LOX IMVI melanoma) was > 100 µM. For the same compound, the TGI (M14 melanoma) was > 100 µM, the TGI (MALME-3M melanoma) was > 100 µM and the TGI (MCF7 breast) was > 100 µM. The TGI (MDA-MB-231 breast) was > 100 µM, the TGI (MDA-MB-435) was > 100 µM and the TGI (MDA-N) was > 100 µM. The TGI (MOLT-4 leukemia) was > 100 µM, the TGI (NCI-H226 lung) was > 100 µM and the TGI (NCI-H23 lung) was > 100 µM. The TGI (NCI-H460 lung) was > 100 µM, the TGI (NCI-H522 lung) was > 100 µM and the TGI (NCI/ADR-RES ovarian) was > 100 µM. For the same compound, the TGI (OVCAR-3 ovarian) was > 100 µM, the TGI (OVCAR-4 ovarian) was > 100 µM and the TGI (OVCAR-5 ovarian) was > 100 µM. For the same compound, the TGI (OVCAR-8 ovarian) was > 100 µM, the TGI (PC-3 prostate) was > 100 µM and the TGI (RPMI-8226 leukemia) was > 100 µM. For the same compound, the TGI (RXF 393 renal) was > 100 µM, the TGI (SF-268 CNS) was > 100 µM and the TGI (SF-295 CNS) was > 100 µM. For the same compound, the TGI (SF-539 CNS) was > 100 µM, the TGI (SK-MEL-2 melanoma) was 77.7 µM and the TGI (SK-MEL-28 melanoma) was > 100 µM. For the same compound, the TGI (SK-MEL-5 melanoma) was > 100 µM, the TGI (SK-OV-3 ovarian) was > 100 µM and the TGI (SN12C renal) was > 100 µM. For the same compound, the TGI (SNB-19 CNS) was > 100 µM, the TGI (SNB-75 CNS) was 28.1 µM and the TGI (SR leukemia) was > 100 µM. For the same compound, the TGI (SW-620 colon) was > 100 µM, the TGI (T-47D breast) was > 100 µM and the TGI (TK-10 renal) was > 100 µM. The TGI (U251 CNS) was > 100 µM, the TGI (UACC-257 melanoma) was > 100 µM and the TGI (UACC-62 melanoma) was > 100 µM. For the same compound, the TGI (UO-31 renal) was > 100 µM.

With `Cc1sc2nc3n(c(=O)c2c1C)N=C(c1ccccc1)CS3` the TGI (786-0 renal) was > 100 µM, the TGI (A498 renal) was > 100 µM and the TGI (A549 NSCLC) was > 100 µM. The TGI (ACHN renal) was > 100 µM, the TGI (BT-549 breast) was > 100 µM and the TGI (CAKI-1 renal) was > 100 µM. For the same compound, the TGI (CCRF-CEM leukemia) was > 100 µM, the TGI (COLO 205 colon) was > 100 µM and the TGI (DU-145 prostate) was > 100 µM. For the same compound, the TGI (EKVX NSCLC) was > 100 µM, the TGI (HCC-2998 colon) was > 100 µM and the TGI (HCT-116 colon) was > 100 µM. The TGI (HCT-15 colon) was > 100 µM, the TGI (HL-60(TB) leukemia) was > 100 µM and the TGI (HOP-62 NSCLC) was > 100 µM. For the same compound, the TGI (HOP-92 NSCLC) was > 100 µM, the TGI (HS 578T breast) was > 100 µM and the TGI (HT29 colon) was > 100 µM. The TGI (IGROV1 ovarian) was > 100 µM, the TGI (K-562 leukemia) was > 100 µM and the TGI (KM12 colon) was > 100 µM. The TGI (LOX IMVI melanoma) was > 100 µM, the TGI (MALME-3M melanoma) was > 100 µM and the TGI (MCF7 breast) was > 100 µM. The TGI (MDA-MB-231 breast) was > 100 µM, the TGI (MDA-MB-435) was > 100 µM and the TGI (MDA-N) was > 100 µM. The TGI (MOLT-4 leukemia) was > 100 µM, the TGI (NCI-H226 lung) was > 100 µM and the TGI (NCI-H23 lung) was > 100 µM. The TGI (NCI-H460 lung) was > 100 µM, the TGI (NCI-H522 lung) was > 100 µM and the TGI (NCI/ADR-RES ovarian) was > 100 µM. For the same compound, the TGI (OVCAR-3 ovarian) was > 100 µM, the TGI (OVCAR-4 ovarian) was > 100 µM and the TGI (OVCAR-5 ovarian) was > 100 µM. For the same compound, the TGI (OVCAR-8 ovarian) was > 100 µM, the TGI (PC-3 prostate) was > 100 µM and the TGI (RPMI-8226 leukemia) was > 100 µM. The TGI (RXF 393 renal) was > 100 µM, the TGI (SF-268 CNS) was > 100 µM and the TGI (SF-295 CNS) was > 100 µM. The TGI (SF-539 CNS) was > 100 µM, the TGI (SK-MEL-28 melanoma) was > 100 µM and the TGI (SK-MEL-5 melanoma) was > 100 µM. For the same compound, the TGI (SK-OV-3 ovarian) was > 100 µM, the TGI (SN12C renal) was > 100 µM and the TGI (SNB-75 CNS) was > 100 µM. The TGI (SR leukemia) was > 100 µM, the TGI (SW-620 colon) was > 100 µM and the TGI (T-47D breast) was > 100 µM. The TGI (TK-10 renal) was > 100 µM, the TGI (U251 CNS) was > 100 µM and the TGI (UACC-257 melanoma) was > 100 µM. The TGI (UACC-62 melanoma) was > 100 µM and the TGI (UO-31 renal) was > 100 µM.
